{"source": "paper PMC10287566", "about": "“Signaling-specific inhibition of the CB1 receptor for cannabis use disorder: phase 1 and phase 2a randomized trials” (Nature Medicine, 2023)", "key": {"[1]": {"tested_on": "85 receptors", "assay": "Eurofins high-throughput binding screen", "settings": "10 µM"}, "[2]": {"target": "T1, hCB1 point mutant p.E1.49G (Homo sapiens, UniProt P21554, E133G)", "T1 construct": "expressed in transfected cells; host or cells: HEK293", "T1 sequence (P21554 whole entry E133G)": "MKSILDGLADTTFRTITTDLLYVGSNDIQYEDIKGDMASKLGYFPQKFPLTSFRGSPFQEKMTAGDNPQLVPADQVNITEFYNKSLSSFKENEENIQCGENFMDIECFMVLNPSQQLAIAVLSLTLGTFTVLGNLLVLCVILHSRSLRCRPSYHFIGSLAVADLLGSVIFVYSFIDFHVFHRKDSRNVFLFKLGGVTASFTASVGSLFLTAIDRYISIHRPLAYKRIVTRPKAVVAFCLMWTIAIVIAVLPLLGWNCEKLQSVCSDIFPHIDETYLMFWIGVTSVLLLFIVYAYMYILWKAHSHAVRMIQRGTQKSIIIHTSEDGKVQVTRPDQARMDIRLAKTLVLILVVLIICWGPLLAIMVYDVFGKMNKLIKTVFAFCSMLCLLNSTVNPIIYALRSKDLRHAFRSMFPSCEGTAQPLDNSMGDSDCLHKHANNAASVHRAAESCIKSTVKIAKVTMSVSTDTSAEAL", "assay": "THC-induced decrease in cellular respiration, HEK293 cells with mutant hCB1", "format": "cell-based", "settings": "HEK293, hCB1 p.E1.49G, THC 1 µM", "experimental": "After 15 min of incubation, THC (1 µM, dissolved in ethanol 0.0034%) or vehicle was added in the culture dishes for 30 min.\nCellular respiration was measured in a calibrated oxygraph (Oxygraph-2k, Oroboros Instruments) equipped with a Clark electrode and DatLab software. Oxygen consumption (OC) rate was used to measure cellular respiration."}, "[3]": {"tested_on": "mice", "assay": "Depression-related behavior, sucrose preference test, repeated treatment", "format": "in vivo", "settings": "mice, sucrose preference test, highest dose tested 15 mg/kg", "excerpt": "Anxiety-like behaviors were studied in the elevated plus maze (EPM), a rodent model used to evaluate the putative anxiogenic or anxiolytic effects of pharmacological compounds. Depression-related behaviors were studied using the sucrose preference test as a model of anhedonia, one of the cardinal symptoms of depression.\nThe sucrose preference test was done in the home cage. Two identical bottles, one containing water and the other containing a 2% sucrose solution, were placed in the hopper of each cage. The mice had unlimited access to water and sucrose solutions during the active phase—the dark phase of the light/dark cycle that started at 20:00. The volume of water and of sucrose solution consumed was measured over two […] intervals, the first between 19:00 and 20:30 and the second between 20:30 and 22:00. At each timepoint, the bottles were weighed, and the intake volume was calculated by subtracting the […].\nThe EPM assessment was done on day 26, and the sucrose preference test was done on day 28."}, "[4]": {"tested_on": "mice", "assay": "THC-induced impairment of pre-pulse inhibition", "format": "in vivo"}, "[5]": {"assay": "SAD study, plasma pharmacokinetics", "format": "in vivo", "settings": "human, oral; for Cmax: read-out: Cmax, mean (±SD); for half-life: SAD, evaluated 0-144 h, underestimated, read-out: t½, min-max", "experimental": "For both SAD and MAD studies, the PK parameters were calculated using standard non-compartmental methods for those with sufficient plasma concentration data."}, "[6]": {"target": "T2, human CB1 (Homo sapiens, UniProt P21554)", "T2 sequence (P21554 whole entry)": "as the sequence (P21554 whole entry E133G) above, with G133E counted along it", "assay": "[3H]CP55,940 equilibrium binding, HEK293-hCB1 cell membranes", "parameters": "3x hemagglutinin (3HA) (N); expressed in transfected cells; membrane preparation", "settings": "up to 10 µM"}, "[7]": {"assay": "Plasma pharmacokinetics/toxicokinetics in dogs (oral and i.v.)", "format": "in vivo", "settings": "both sexes, Beagle, dog; for bioavailability: ratio of AUC per os and i.v.", "experimental": "For both conditions, animals were fasted overnight before dosing and up to approximately 2 h afterwards. […] Blood samples were drawn from the cephalic or jugular veins at the following timepoints: before dose and then at 0.125 h (7.5 min), 0.25 h, 0.5 h, 1 h, 2 h, 4 h, 6 h, 8 h, 10 h, 24 h and 48 h after dosing.\nBlood samples were immediately cooled on ice. Plasma was prepared by centrifugation for 7 min at 1,600g under refrigeration (4 ± 2 °C), performed within 15 min at maximum after blood sampling. Plasma was divided into two polypropylene tubes containing at least 500 µl and then stored frozen (≤−70 °C) until assay.\nFor all studies in rats and the 91-d toxicity study in dogs, the timepoints on days 1, 28 and 91 were: before dose and 1, 3, 5, 8 and 24 h after dose. For the 28-d toxicity study in dogs, the timepoints on days 1 and 28 were: before dose and 1, 2, 4, 8, and 24 h after dose. In both species, only mean pre-dose plasma concentrations were calculated on day 14 for the 28-d study and on day 28 for the 91-d study. For the experiments in rats, blood samples for drug analysis were taken from the satellite animals used for the toxicokinetic (TK) analysis (n = 3 per sex per timepoint and per group). For experiments performed in dogs, blood samples were drawn from the cephalic or jugular veins of all animals (n = 3 per sex per group).\nTK analysis was performed separately per sex on mean concentrations by a non-compartmental analysis (NCA). The linearity of exposure was evaluated by comparison of the AUC/dose and Cmax/dose ratios. Possible accumulation was evaluated from the ratio of AUC on day 28 and on day 1 for each dose level and each sex. Samples lower than the limit of quantification (LLQ) values (that is, < 8.00 ng ml^−1 in rats and <20.0 ng ml^−1 in dogs) were not included in the calculation of TK parameters."}, "[8]": {"target": "T2, human CB1", "assay": "THC-induced decrease in cAMP in CHO-hCB1 cells", "format": "cell-based", "parameters": "host or cells: CHO-K1", "experimental": "CHO cells stably expressing the human CB1 receptor (CHO-hCB1) were used in these experiments (ES-110C, PerkinElmer).\nCHO-hCB1 cells were treated by concomitantly adding THC and the test compound for 45 min. Forskolin (2.5 µM) was also simultaneously added in all the conditions tested to sustain cAMP basal level. At the end of the treatment, cells were lysed for cAMP quantification. All measures were performed in triplicate in one experiment.\nThe quantitative determination of cAMP was done using a competitive fluorescence immunoassay. Data were expressed as % of Δ fluorescence (ΔF) that was calculated as follows: ΔF% = (sample fluorescence − negative control fluorescence) / negative control fluorescence. These experiments were done by the CRO Fluofarma."}, "[9]": {"settings": "Impairment of pre-pulse inhibition"}, "[10]": {"settings": "iv, 0.7 mg/kg, dogs i.v. 0.7 mg/kg"}, "[11]": {"settings": "po, 0.7 mg/kg, dogs po 0.7 mg/kg single"}, "[12]": {"settings": "po, 2 mg/kg, dogs po 2 mg/kg single, 91-day tox study"}, "[13]": {"settings": "po, 2 mg/kg, dogs po 2 mg/kg theoretical (approx. 0.5 mg/kg received), 28-day tox study"}, "[14]": {"settings": "po, 9 mg/kg, dogs po 9 mg/kg single, 28-day tox study"}, "[15]": {"settings": "po, 20 mg/kg, dogs po 20 mg/kg single, 91-day tox study"}, "[16]": {"settings": "po, 36 mg/kg, dogs po 36 mg/kg single, 28-day tox study"}, "[17]": {"settings": "po, 65 mg/kg, dogs po 65 mg/kg single, 91-day tox study"}}}
{"smiles": "COc1ccc(CO[C@H]2CC[C@@]3(C)C(=CC[C@H]4[C@@H]5CC[C@H](C(C)=O)[C@@]5(C)CC[C@@H]43)C2)cc1", "note": "[AEF0117, 3β-(4-methoxybenzyloxy)pregn-5-en-20-one]", "values": [{"measurement": "binding activity at 85 receptors", "setting": "[1]", "value": "did not modify binding to any receptor"}, {"measurement": "effect on cellular respiration with mutant hCB1", "setting": "[2]", "value": "loss of effect"}, {"measurement": "Overall effect: increase in depression-related behaviors", "setting": "[3]", "value": "No"}, {"measurement": "THC impairment in sensory motor gating (PPI)", "setting": "[4]", "value": "inhibited"}, {"measurement": "% Inhibition", "setting": "[4]; [9]", "value": 100, "unit": "%"}, {"measurement": "ID50", "setting": "[4]; [9]", "value": 4.5, "unit": "µg/kg"}, {"measurement": "ID100", "setting": "[4]; [9]", "value": 15, "unit": "µg/kg"}, {"measurement": "Cmax", "setting": "[5]; both sexes, SAD Day 1, 2 mg", "value": "14.7 ± 4.3", "unit": "ng/mL"}, {"measurement": "Tmax", "setting": "[5]; both sexes, SAD Day 1, 2 mg, read-out: tmax, median (range)", "value": 3, "unit": "h"}, {"measurement": "half-life", "setting": "[5]; both sexes, 0.6 mg", "value": "75.9 to 229", "unit": "h"}, {"measurement": "Tmax", "setting": "[5]; healthy volunteers, read-out: Tmax", "value": "~3", "unit": "h"}, {"measurement": "Cmax", "setting": "[5]; SAD Day 1, 0.2 mg", "value": "1.3 ± 0.3", "unit": "ng/mL"}, {"measurement": "Tmax", "setting": "[5]; SAD Day 1, 0.2 mg, read-out: tmax, median (range)", "value": 3, "unit": "h"}, {"measurement": "Cmax", "setting": "[5]; SAD Day 1, 0.6 mg", "value": "3.5 ± 1", "unit": "ng/mL"}, {"measurement": "Tmax", "setting": "[5]; SAD Day 1, 0.6 mg, read-out: tmax, median (range)", "value": 2.5, "unit": "h"}, {"measurement": "Cmax", "setting": "[5]; SAD Day 1, 6 mg", "value": "38.6 ± 8.1", "unit": "ng/mL"}, {"measurement": "Tmax", "setting": "[5]; SAD Day 1, 6 mg, read-out: tmax, median (range)", "value": 2, "unit": "h"}, {"measurement": "half-life", "setting": "[5]; 2 mg", "value": "84.4 to 180", "unit": "h"}, {"measurement": "half-life", "setting": "[5]; 6 mg", "value": "69.3 to 162", "unit": "h"}, {"measurement": "Tmax", "setting": "[5]; healthy volunteers, SAD and MAD, read-out: median tmax", "value": "2 to 3", "unit": "h"}, {"measurement": "effect on equilibrium binding of [3H]CP55,940", "setting": "[6]", "value": "does not modify"}, {"measurement": "Tmax", "setting": "[7]; dogs po 0.7 mg/kg single", "value": 2.67, "unit": "h"}, {"measurement": "Tmax", "setting": "[7]; dogs po 2 mg/kg theoretical (approx. 0.5 mg/kg received), 28-day tox study", "value": 4, "unit": "h"}, {"measurement": "Tmax", "setting": "[7]; dogs po 9 mg/kg single, 28-day tox study", "value": 6, "unit": "h"}, {"measurement": "Tmax", "setting": "[7]; dogs po 20 mg/kg single, 91-day tox study", "value": 4, "unit": "h"}, {"measurement": "Tmax", "setting": "[7]; dogs po 36 mg/kg single, 28-day tox study", "value": 4, "unit": "h"}, {"measurement": "Tmax", "setting": "[7]; dogs po 65 mg/kg single, 91-day tox study", "value": 4, "unit": "h"}, {"measurement": "half-life", "setting": "[7]; dogs, read-out: terminal half-life (converted)", "value": 35.9, "unit": "h"}, {"measurement": "AUC(0-t)", "setting": "[7]; [10]", "value": 2190, "unit": "ng·h/mL"}, {"measurement": "Cmax", "setting": "[7]; [10]", "value": 505, "unit": "ng/mL"}, {"measurement": "half-life", "setting": "[7]; iv, 0.7 mg/kg, dogs i.v. 0.7 mg/kg, manual linear regression of last three points, read-out: t½ (converted)", "value": 35.9, "unit": "h"}, {"measurement": "half-life", "setting": "[7]; iv, 0.7 mg/kg, dogs iv, read-out: half-life", "value": "33.5 to 38.2", "unit": "h"}, {"measurement": "Tmax", "setting": "[7]; iv, dogs i.v. 0.7 mg/kg", "value": 0.125, "unit": "h"}, {"measurement": "bioavailability", "setting": "[7]; oral, 0.7 mg kg^−1, dogs", "value": "~68", "unit": "%"}, {"measurement": "AUC(0-t)", "setting": "[7]; [11]", "value": 1450, "unit": "ng·h/mL"}, {"measurement": "Cmax", "setting": "[7]; [11]", "value": 138, "unit": "ng/mL"}, {"measurement": "half-life", "setting": "[7]; po, 0.7 mg/kg, dogs po 0.7 mg/kg, manual linear regression of last three points, read-out: t½ (converted)", "value": 28, "unit": "h"}, {"measurement": "bioavailability", "setting": "[7]; po, 0.7 mg/kg, dogs", "value": 68, "unit": "%"}, {"measurement": "AUC(0-t)", "setting": "[7]; [12]", "value": 2910, "unit": "ng·h/mL"}, {"measurement": "Cmax", "setting": "[7]; [12]", "value": 241, "unit": "ng/mL"}, {"measurement": "AUC(0-t)", "setting": "[7]; [13]", "value": 1020, "unit": "ng·h/mL"}, {"measurement": "Cmax", "setting": "[7]; [13]", "value": 95, "unit": "ng/mL"}, {"measurement": "AUC(0-t)", "setting": "[7]; [14]", "value": 18500, "unit": "ng·h/mL"}, {"measurement": "Cmax", "setting": "[7]; [14]", "value": 1200, "unit": "ng/mL"}, {"measurement": "AUC(0-t)", "setting": "[7]; [15]", "value": 26500, "unit": "ng·h/mL"}, {"measurement": "Cmax", "setting": "[7]; [15]", "value": 2530, "unit": "ng/mL"}, {"measurement": "AUC(0-t)", "setting": "[7]; [16]", "value": 50300, "unit": "ng·h/mL"}, {"measurement": "Cmax", "setting": "[7]; [16]", "value": 3480, "unit": "ng/mL"}, {"measurement": "AUC(0-t)", "setting": "[7]; [17]", "value": 43500, "unit": "ng·h/mL"}, {"measurement": "Cmax", "setting": "[7]; [17]", "value": 3300, "unit": "ng/mL"}, {"measurement": "half-life", "setting": "[7]; po, dogs per os, read-out: half-life", "value": "24.4 to 31.6", "unit": "h"}, {"measurement": "effect on THC's effects on cAMP", "setting": "[8]", "value": "without modifying"}]}
